Assay [1] deals with T1, MK2 (Homo sapiens, UniProt P49137). Briefly: MK2 degradation in human THP-1 monocytic cells (MSD, 24 h). In kind it is cell-based. More on the design: endogenous in cells. As to conditions: for Dmax: THP-1, THP-1 cells; for DC50: THP-1 cells, read-out: MK2 MSD THP-1 degradation 24 h GMean External Abs DC50. Here is the method:
MK2 Degradation in Human THP-1 Monoctyic Cells
(§1) The human monocytic cancer cell line THP-1 (ATCC (TIB-202)) was cultured in 96 well plates (Corning 3894) at a density of 200,000 cells per well in 100 microlitres in complete growth medium of RPMI 1640 (Gibco) pus 10% fetal Bovine Serum (Corning) and Penicillin/Streptomycin (SolarBio) at 37 degrees Celsius and 5% CO2. A serial dilution of each compound (usually 3 to 5 fold serial dilutions up to 10 separate concentration points) was added to individual wells from a 10 millimolar stock solution, at a background concentration of 0.1% DMSO and the cells were shaken at 600 rpm for 5 minutes and then were cultured for 24 hours at 37 degrees Celsius and 5% carbon dioxide. Separately, a custom MSD (MesoScaleDiscovery, L15XA-3) plate for detection of human MK2 was prepared by coating the plate with the commercial AbCam ab247272 reagent in 1×Phosphate Buffered Saline at 40 microlitres per well and incubated at 4 degrees Celsius overnight. The next day, the MSD plate was washed with 150 microlitres of Tween buffered saline, blocked with MSD blocking buffer (3% Blocker A from MSD), and washed again.
(§2) The cell plate was centrifuged at 3,200 g for 5 minutes and the supernatant was discarded and 100 microlitres of RIPA lysis buffer (containing proteinase inhibitors, Boston BioProducts BP-115D) was added and the plate was sealed and shaken on ice for 20 minutes. The plate was centrifuged as before and 70 microlitres of sample lysate was added to the MSD plates and they were shaken at room temperature for 1 hour at 600 rpm. The MSD plate was washed 3 times as before and then the primary MK2 detection antibody (Santa Cruz sc-100393) was added at a final concentration of 1 microgram per ml at 25 microlitres per well and shaken at room temperature for 1 hour at 600 rpm.
(§3) After 3 more washes, the secondary detection antibody (SULFO-Tag anti rabbit antibody R32AB-5) was added at a final concentration of 1 microgram per ml at 25 microlitres per well and shaken at room temperature for 1 hour at 600 rpm. After 3 more washes, the 1×MSD (diluted from 5× concentrate with water) reading buffer was added at 150 microlitres per well and read on the MSD instrument Meso Sector S 600.
(§4) The inhibition/degradation curves and DC50 values were plotted and calculated using XL Fit (version v5.3.1.3) using equation 201 and a 4 parameter logistic model whereby fit=(A+((B−A)/(1+((x/C)D))) where A is the Bottom and B is the Top and C is the IC50 and D is the slope and high C is the signal for the DMSO treated cells and Low C is the signal is the signal for the lysis buffer.

In assay [2] the target is T1, MK2. Briefly: MK2 degradation in human SW1353 cells (MSD, 24 h). In kind it is cell-based. On the set-up: endogenous in cells; host or cells: SW-1353 (ATCC HTB-94). Conditions: for Dmax: read-out: MK2 MSD SW 1353 24 h Dmax %; for DC50: read-out: MK2 MSD SW1353 degradation 24 h GMean External Abs DC50. How it is done: MK2 Degradation in Human SW1353 Cells
as §1, with “chondrocyte” for “monocytic”, “SW-1353 (ATCC(HTB-94))” for “THP-1 (ATCC (TIB-202))”, “Leibovitz's L-15 Medium” for “RPMI 1640”, “Celsius.” for “Celsius and 5% CO2.”, “Celsius.” for “Celsius and 5% carbon dioxide.”
as §2, §3, §4

By Dmax is commonly meant the largest share of the target that was removed. In general, DC50 refers to the midpoint of the concentration-degradation curve.

Some results are limits rather than exact numbers.

T1 sequence (P49137 whole entry): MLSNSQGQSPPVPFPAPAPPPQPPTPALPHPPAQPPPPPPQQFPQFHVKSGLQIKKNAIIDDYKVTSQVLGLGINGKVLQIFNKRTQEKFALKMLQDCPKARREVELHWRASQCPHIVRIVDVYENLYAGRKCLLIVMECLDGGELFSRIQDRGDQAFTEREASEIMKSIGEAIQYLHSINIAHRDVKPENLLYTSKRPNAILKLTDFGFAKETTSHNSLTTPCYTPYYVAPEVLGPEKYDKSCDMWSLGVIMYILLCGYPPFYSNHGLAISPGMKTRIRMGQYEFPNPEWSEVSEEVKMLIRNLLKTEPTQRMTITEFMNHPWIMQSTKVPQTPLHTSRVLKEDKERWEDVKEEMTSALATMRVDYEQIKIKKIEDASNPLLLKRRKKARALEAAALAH

As for `Cn1c(=O)n(C2CCC(=O)NC2=O)c2cccc(CCCN3CCN(c4ccc(F)c(-c5cc(-c6cc7c([nH]6)CCNC7=O)ccn5)c4)CC3)c21` (stereo not drawn) [Compound I-133], in assay [1], the Dmax is less than 50% and the DC50 was greater than 100 nM. Moreover, in assay [2], the Dmax was less than 50% and the DC50 is greater than 100 nM.
Consider `Cn1c(=O)n(C2CCC(=O)NC2=O)c2cccc(CCCCCN3CCN(c4ccc(F)c(-c5cc(-c6cc7c([nH]6)CCNC7=O)ccn5)c4)CC3)c21` (stereo not drawn) [Compound I-134], for which, in assay [1], the Dmax was less than 50% and the DC50 is greater than 100 nM. Further, in assay [2], the Dmax was less than 50% and the DC50 was greater than 100 nM.
Turning to `Cn1c(=O)n(C2CCC(=O)NC2=O)c2cccc(CCCCCCCN3CCN(c4ccc(F)c(-c5cc(-c6cc7c([nH]6)CCNC7=O)ccn5)c4)CC3)c21` (stereo not drawn) [Compound I-135], in assay [1], the Dmax was less than 50% and the DC50 is greater than 100 nM. Also, in assay [2], the Dmax is less than 50% and the DC50 was greater than 100 nM.
For the molecule `Cn1c(=O)n(C2CCC(=O)NC2=O)c2cccc(C3CCN(CC4CCN(c5ccc(-c6cc(-c7cc8c([nH]7)CCNC8=O)ccn6)c(F)c5)CC4)CC3)c21` (stereo not drawn) [Compound I-137], the Dmax in assay [1] and in assay [2] was greater than 75% throughout. Besides, the results for the DC50 in assay [1] and in assay [2] were 1 to 10 nM and less than 1 nM, respectively.
In the case of `Cn1c(=O)n(C2CCC(=O)NC2=O)c2cccc(N3CCC(CN4CCN(c5ccc(-c6cc(-c7cc8c([nH]7)CCNC8=O)ccn6)cn5)CC4)CC3)c21` (stereo not drawn) [Compound I-138], in assay [1], the Dmax is greater than 75% and the half-maximal degradation concentration (DC50) was less than 1 nM. Moreover, in assay [2], the Dmax was greater than 75% and the DC50 is less than 1 nM.
As for `Cn1c(=O)n(C2CCC(=O)NC2=O)c2cccc(N3CCC(CCN4CCN(c5ccc(-c6cc(-c7cc8c([nH]7)CCNC8=O)ccn6)cc5)CC4)CC3)c21` (stereo not drawn) [Compound I-139], in assay [1], the Dmax was greater than 75% and the DC50 is less than 1 nM. For the same molecule, in assay [2], the Dmax is greater than 75% and the DC50 is 1 to 10 nM.
For the molecule `Cn1c(=O)n(C2CCC(=O)NC2=O)c2ccc(N3CCC(CN4CCN(c5ccc(-c6cc(-c7cc8c([nH]7)CCNC8=O)ccn6)cn5)CC4)CC3)cc21` (stereo not drawn) [Compound I-141], in assay [1], the Dmax was greater than 75% and the DC50 was less than 1 nM. Besides, in assay [2], the Dmax was greater than 75% and the DC50 is less than 1 nM.
For `Cn1c(=O)n(C2CCC(=O)NC2=O)c2ccc(N3CCC(CN4CCN(c5ccc(-c6cc(-c7cc8c([nH]7)CCNC8=O)ccn6)cc5)CC4)CC3)cc21` (stereo not drawn) [Compound I-143], in assay [1], the Dmax was greater than 75% and the DC50 is less than 1 nM. Besides, in assay [2], the greatest degradation seen (Dmax) was greater than 75% and the DC50 was less than 1 nM.
For `Cn1c(=O)n(C2CCC(=O)NC2=O)c2cccc(C3CCN(CC4CCN(c5ccc(F)c(-c6cc(-c7cc8c([nH]7)CCNC8=O)ccn6)c5)CC4)CC3)c21` (stereo not drawn) [Compound I-146], in assay [1], the Dmax was less than 50% and the DC50 was greater than 100 nM. In assay [2], the maximal degradation (Dmax) is less than 50% and the DC50 was greater than 100 nM.
For `CN1CC2(CNC(=O)c3c2[nH]c2c3CCc3cnc(-c4ccc(N5CCN(CCCCc6cccc7c6n(C)c(=O)n7C6CCC(=O)NC6=O)CC5)cc4F)cc3-2)C1` (stereo not drawn) [Compound I-154], in assay [1], the Dmax was greater than 75% and the DC50 fell in the range of 10 to 100 nM. In addition, in assay [2], the Dmax is greater than 75% and the DC50 lay in the range of 10 to 100 nM.
For `CN1CC2(CNC(=O)c3c2[nH]c2c3CCc3cnc(-c4cc(N5CCN(CCCCc6cccc7c6n(C)c(=O)n7C6CCC(=O)NC6=O)CC5)ccc4F)cc3-2)C1` (stereo not drawn) [Compound I-155], the Dmax in assay [1] and in assay [2] was less than 50% in each case. The DC50 in assay [1] and in assay [2] was greater than 100 nM each time.
For the molecule `C[C@@H]1CNc2c(sc3ccc4nc(-c5cncc(N6CCN(CCCCCc7cccc8c7n(C)c(=O)n8C7CCC(=O)NC7=O)CC6)c5)ccc4c23)C(=O)N1` (stereo partly drawn) [Compound I-156], in assay [1], the Dmax was greater than 75% and the DC50 was less than 1 nM. In assay [2], the Dmax is greater than 75% and the DC50 was less than 1 nM.
Turning to `C[C@@H]1CNc2c(sc3ccc4nc(-c5cncc(N6CCN(CCCc7ccc8c(c7)n(C)c(=O)n8C7CCC(=O)NC7=O)CC6)c5)ccc4c23)C(=O)N1` (stereo partly drawn) [Compound I-157], the Dmax in assay [1] and in assay [2] was greater than 75% in each case. Moreover, the DC50 in assay [1] and in assay [2] was less than 1 nM each time.
Turning to `C[C@@H]1CNc2c(sc3ccc4nc(-c5cncc(N6CCN(CCCCCCCc7cccc8c7n(C)c(=O)n8C7CCC(=O)NC7=O)CC6)c5)ccc4c23)C(=O)N1` (stereo partly drawn) [Compound I-158], in assay [1], the Dmax is greater than 75% and the DC50 was less than 1 nM. In assay [2], the greatest degradation seen (Dmax) is greater than 75% and the 50% degradation concentration (DC50) is 1 to 10 nM.
As to `C[C@@H]1CNc2c(sc3ccc4nc(-c5cncc(N6CCN(CC7CCN(c8cccc9c8n(C)c(=O)n9C8CCC(=O)NC8=O)CC7)CC6)c5)ccc4c23)C(=O)N1` (stereo partly drawn) [Compound I-160], the Dmax in assay [1] and in assay [2] was greater than 75% in each case. In addition, the DC50 in assay [1] and in assay [2] was less than 1 nM each time.
Consider `C[C@@H]1CNc2c(sc3ccc4nc(-c5cncc(N6CCN(CC7CCN(c8ccc9c(c8)n(C)c(=O)n9C8CCC(=O)NC8=O)CC7)CC6)c5)ccc4c23)C(=O)N1` (stereo partly drawn) [Compound I-161], for which, in assay [1], the Dmax is greater than 75% and the DC50 was less than 1 nM. For the same molecule, in assay [2], the Dmax was greater than 75% and the 50% degradation concentration (DC50) was less than 1 nM.
Take `C[C@@H]1CNc2c(sc3ccc4nc(-c5cncc(C6CCN(CC7CCN(c8ccc9c(c8)n(C)c(=O)n9C8CCC(=O)NC8=O)CC7)CC6)c5)ccc4c23)C(=O)N1` (stereo partly drawn) [Compound I-165]: in assay [1], the Dmax is greater than 75% and the half-maximal degradation concentration (DC50) is less than 1 nM. Also, in assay [2], the Dmax was greater than 75% and the DC50 is less than 1 nM.
With `Cn1c(=O)n(C2CCC(=O)NC2=O)c2cccc(CCCCN3CC4(CCN(c5ccc6c(c5)Cn5cc(-c7ccc(F)cc7)cc5-c5nccn5-6)C4)C3)c21` (stereo not drawn) [Compound I-167], the Dmax in assay [1] and in assay [2] was less than 50% throughout. Further, the DC50 in assay [1] and in assay [2] was greater than 100 nM each time.
Turning to `Cn1c(=O)n(C2CCC(=O)NC2=O)c2ccc(CCCCCCN3CC4(CCN(c5ccc6c(c5)Cn5cc(-c7ccc(F)cc7)cc5-c5nccn5-6)C4)C3)cc21` (stereo not drawn) [Compound I-168], the Dmax in assay [1] and in assay [2] was less than 50% in each case. In addition, the 50% degradation concentration (DC50) in assay [1] and in assay [2] was greater than 100 nM in each case.
As to `C[C@@H]1CNc2c(sc3ccc4nc(-c5ccc(N6CCN(CCCCCCCCc7cccc8c7n(C)c(=O)n8C7CCC(=O)NC7=O)CC6)cc5)ccc4c23)C(=O)N1` (stereo partly drawn) [Compound I-170], the Dmax in assay [1] and in assay [2] was greater than 75% in each case. Further, the DC50 in assay [1] and in assay [2] was 1 to 10 nM throughout.
Consider `C[C@@H]1CNc2c(sc3ccc4nc(-c5ccc(N6CCN(CCCCCc7cccc8c7n(C)c(=O)n8C7CCC(=O)NC7=O)CC6)cc5)ccc4c23)C(=O)N1` (stereo partly drawn) [Compound I-171], for which the maximal degradation (Dmax) is 50 to 75% in assay [1] and greater than 75% in assay [2]. Also, the DC50 in assay [1] and in assay [2] was 1 to 10 nM throughout.
